The results in this text go back to patent US6514946B1, “Macrolide antibiotics and treatment and prophylaxis of pasteurellosis using the same” (Zaidan Hojin Biseibutsu Kagaku Kenkyu Kai, priority 1999, dated 2003).

Converted amounts (≈) assume the structure as drawn.

One experiment relates to M. bovirhinis. Kind of experiment: Bacteria separation test from nasal cavity swab. The format is in vivo, cattle.
For experiment [1], the system named is S. aureus Smith (virulent strain). Kind of experiment: microbe, parasite or virus in culture. In kind it is cell-based, Staphylococcus aureus. To be noted: Staphylococcus aureus. Put shortly:
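Compounds were serially double-diluted into Mueller Hinton agar, following the Japan Society of Chemotherapy standard, and the test strains were then grown on it. Pasteurella alone was tested on brain heart infusion agar.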

The next experiment relates to M. bovis. The format is in vivo, cattle. To be noted: nasal cavity swab.
Experiment [2] relates to bovine bacterial pneumonia (Mycoplasma, Ureaplasma and Pasteurella). Kind of experiment: Clinical test against bovine bacterial pneumonia. In kind it is in vivo, cattle. Also noted: Average clinical score: scale not given here. From the text: Test 5: Clinical Test Against Bovine Bacterial Pneumonia
In this test, each drug was subcutaneously administered to cattle suffering from bacterial pneumonia (infectious diseases with Mycoplasma, Ureaplasma and Pasteurella), respectively, and the clinical effect of P-MT was compared with those of tilmicosin and C-9.
Tests are made on 17 case of one to two-month-old Holstein cattle (weight 56 to 101 kg) suffering from bacterial pneumonia caused by single or mixed infection of Pasteurella, Mycoplasma, Ureaplasma and Haemophilus (6 animals for each of P-MT and C-9 and 5 animals for tilmicosin). The drug was subcutaneously administered to the animals once a day in an amount of 10 mg/kg.
Three calves showing a similar degree of symptoms at the start of the test were arranged in one group. Each subject of the same group was respectively tested with one of the above three compounds. Ailing calves were successively grouped when being available.
Clinical findings, based on the daily observation from the time of the administration through the 5th day of the trial, were scored on each item according to the criteria in the table below. The clinical efficacy of the compounds was judged on the 5th day.
As to judgment based on the clinical symptoms, cases which could be judged among each group were classified into remarkably effective (85 to 100), effective (70 to under 85), a little effective (50 to under 70) and infective (under 50) according to the following improvement rate by clinical scores, and after summing up, the following effective rate was calculated, the difference in the effective rate among the groups was determined using a statistical method, and thus effectivity was judged. [formula]

Where [3] appears, read: before administration (baseline).

Take `CC[C@H]1OC(=O)C[C@@H](O)[C@H](C)[C@@H](O[C@@H]2O[C@H](C)C(O)C(N(C)C)C2O)[C@@H](CCN2CC(C)CC(C)C2)C[C@@H](C)C(=O)/C=C/C(C)=C/[C@@H]1CO[C@@H]1OC(C)C(O)[C@@H](OC)C1OC` (stereo partly shown) [Tilmicosin, tilmicosin]: the “Separation rate (%) at completion (number of animal)” value in the experiment on M. bovirhinis (at completion) was 60 (3/5) % (number of animal); with M. bovis (at completion), 40 (2/5) % (number of animal). Moreover, the “Separation rate (%) before administration (number of animal)” value in the experiment on M. bovirhinis (setting [3]) is 60 (3/5) % (number of animal); in the experiment on M. bovis (setting [3]) it was 40 (2/5) % (number of animal). In experiment [1], this compound showed an MIC of 1.56 µg/mL (≈ 1.79 µM). Moreover, the Average clinical score in experiment [2] (1 day after completion of administration, cattle, 10 mg/kg subcutaneous) is on record as 3.5; in experiment [2] (2 days after completion of administration) it was 2.8; in experiment [2] (3 days after completion of administration), 2.2; in experiment [2] (4 days after completion of administration) it was 2.7; in experiment [2] (at administration (baseline), cattle, 10 mg/kg subcutaneous), 6.5. Besides, in experiment [2] ((remarkably effective + effective case number)/test case number × 100), the “Effective rate (%) in clinical effect” value was 40%. Moreover, the “Average symptomatic improvement rate (%)” value in experiment [2] ((score before − score after administration)/score before × 100) turned out to be 65.6%. The “A little effective (%) (case number)” value in experiment [2] (improvement rate 50 to under 70) is 20 (1) % (case number). Also, in experiment [2] (improvement rate 70 to under 85), the “Effective (%) (case number)” value was 0 (0) % (case number). In addition, the “Remarkably effective (%) (case number)” value in experiment [2] (improvement rate 85 to 100) is on record as 40 (2) % (case number). Besides, the “Ineffective (%) (case number)” value in experiment [2] (improvement rate under 50) was 40 (2) % (case number).
